# Source: the NIST ThermoML archive (doi:10.1016/j.jct.2016.07.009)
# Numbers after ± are expanded uncertainties.
# Assays:
# [1] = Crystal; DTA
# [2] = Molar enthalpy of transition or fusion; settings: Crystal; DSC
structure (smiles),measurement,setting,value
"Nc1ccc([N+](=O)[O-])cc1[N+](=O)[O-] [2,4-dinitroaniline]",Normal melting temperature,[1],178.1 ± 1.1 °C
same,Molar enthalpy of transition or fusion,[2],5.93 ± 0.227 kcal/mol
